Earlier results as cited in US9101541B2 (Cadila Healthcare Limited, priority 2010, dated 2015).

Assays:
[1] = oral administration

For `CO[C@H]1C[C@@H]2CC[C@@H](C)[C@@](O)(O2)C(=O)C(=O)N2CCCC[C@H]2C(=O)O[C@H]([C@H](C)C[C@@H]2CC[C@@H](O)[C@H](OC)C2)CC(=O)[C@H](C)/C=C(\C)[C@@H](O)[C@@H](OC)C(=O)[C@H](C)C[C@H](C)/C=C/C=C/C=C/1C` [Sirolimus, (3S,6R,7E,9R,10R,12R,14S,15E,17E,19E,21S,23S,26R,27R,34aS)-9,10,12,13,14,21,22,23,24,25,26,27,32,33,34,34a-hexadecahydro-9,27-dihydroxy-3-[(1R)-2-[(1S,3R,4R)-4-hydroxy-3-methoxycyclohexyl]-1-methylethyl]-10,21-dimethoxy-6,8,12,14,20,26-hexamethyl-23,27-epoxy-3H-pyrido[2,1-c][1,4]oxaazacyclohentriacontine-1,5,11,28,29 (4H,6H,31H)-pentone], the “time to maximum blood concentrations after dosing” value [1] is listed as 0.5 to 2.3 h, the “oil and water solubility” value is listed as “poor oil and water solubility” and the BCS class (Pharmaceutical Research, Vo. 22, No. 1, January 2005, Chi-Yuan Wu et al.) is listed as “BCS Class 2”.
